Data as given in patent publication US8691281B2, “Solid pharmaceutical composition containing 6-oxo-6,7,8,9,10,11-hexahydrocyclohepta (C)chromen-3-yl sulfamate and polymorphs thereof” (Ipsen Pharma S.A.S., priority 2009, dated 2014).

Key:
Type in all cases: physicochemical
[1] = Chemical stability at 100° C. by HPLC
Description: A stability study was carried out at 100° C. between variety I of compound 1 and the compound 1 described in patent EP 880514. The chemical stability of compound 1 is studied using HPLC with different scores.
(§1) The operating conditions of the HPLC method are the following: • column: Interchim UP3HDO-15XS, 150×4.6 mm,
(§2) • detection: 205 nm, • injection: 20 microliters, • temperature: 40° C., • solution injected: 0.5 mg·mL^−1 (acetonitrile)

[2] = Chemical stability at 150° C. by HPLC
Description: A stability study was carried out at 150° C. between compound 1 of form III and the compound 1 described in patent EP 880514. This chemical stability of compound 1 is studied using HPLC
as §1, §2

[3] = Biopharmaceutical Classification System (BCS) class
Source text: Compound 1 belongs to Class 2 of the Biopharmaceutical Classification System or BCS proposed by G. Amidon (cf. G. L. Amidon et al., “A theoretical basis for a biopharmaceutical drug classification: the correlation of in vitro drug dissolution and in vivo bioavailability”, Pharm. Res. 12 (1995) 413-420). Its absorption, and therefore its bioavailability, thus strongly depend on the dissolution rate of the pharmaceutical form administered.

[4] = Particle size distribution (Malvern Mastersizer S laser granulometer)
Description: • Wavelength: 1.54056 Cu, voltage 40 KV, intensity 40 mA • Measurement range: 3°-30°2 theta • Interval: 0.04°2 theta • Duration of the interval: 4s • Fixed slots: 1.6 mm • Kβ filter (Ni) • Without internal reference • EVA software (v 12.0) for data processing Smart Apex Bruker diffractometer, two-dimensional detector • SMART software for determination of the parameters and orientation of the crystal matrix • SAINT software for data integration and processing • WinGX software for determination of the space group and the structural resolution 6.1.2 DSC • Netzsch DSC 204F1 • Aluminium crucible and pierced lid • Atmosphere: Helium • Initial temperature: 20° C. • Final temperature: 200° C. • Temperature gradient: 5° C.·min^−1 6.1.3 IR • KBr pellet • Bruker IFS28 type spectrometer • Spectral range: 400-4000 cm^−1 6.1.4 NMR of the solid • Bruker Avance 500 MHz spectrometer • MAS (Magic Angle Spinning) 4 mm probe • Bruker XwinNMR software • VACP (Variable Amplitude Cross-Polarization) with MAS (11 kHz) and proton decoupling (spinal 64, 65 kHz) • External reference: Adamantane 6.1.5 Particle Size Distribution • Malvern Mastersizer S laser granulometer • Size of the sample: 30 to 50 mg • Dispersion medium: 0.50% (m/v) Nonidet in water • Mie theory with as refractive indices: particle RI=1.55; imaginary RI=1.00; dispersant RI=1.38 • Sonication time: 60 seconds • Sonication energy: 50 to 60 Hz • Recirculation time: 30 seconds at 2000 rpm^−1 • Obscuration: 15-25% 6.2 Characterization of the Examples 6.2.1 Examples 5 and 5b

[5] = Conversion experiments between the polymorphic forms; conditions: after heating, return to ambient temperature
Description: The applicant has carried out conversion experiments between the different polymorphic forms of compound 1 which have shown that form III is the form which is stable at a high temperature (T>145° C.). This significant property makes it possible, by heating under vacuum, to eliminate traces of solvent (Polymorphism in the Pharmaceutical Industry, Wiley 2006, Ed Hilfiker; Wiley, ISBN: 978-3-527-31146-0).

## NS(=O)(=O)Oc1ccc2c3c(c(=O)oc2c1)CCCCC3 [Compound 1 Patent EP 880514, 6-oxo-6,7,8,9,10,11-hexahydrocyclohepta[c]chromen-3-yl sulphamate, reference compound]
[1]; T0
  HPLC Purity: 99.6%
[1]; T1 day at 100° C.
  HPLC Purity: 99.1%
[1]; T2 days at 100° C.
  HPLC Purity: 98.8%
[1]; T3 days at 100° C.
  HPLC Purity: 98.7%
[1]; T7 days at 100° C.
  HPLC Purity: 98.0%
[2]; T0 (start of stability study at 150° C.)
  HPLC Purity: 99.6%
[2]; T2 hours at 150° C.
  HPLC Purity: 7.3%

## NS(=O)(=O)Oc1ccc2c3c(c(=O)oc2c1)CCCCC3 [Compound 1, 6-oxo-6,7,8,9,10,11-hexahydrocyclohepta[c]chromen-3-yl sulphamate]
[3]
  Biopharmaceutical Classification System (BCS) class: Class 2

## NS(=O)(=O)Oc1ccc2c3c(c(=O)oc2c1)CCCCC3 [Example 2-2]
[4]
  particle size distribution D10(%): 1.2 μm
  particle size distribution D50(%): 5.2 μm
  particle size distribution D90(%): 11.0 μm

## NS(=O)(=O)Oc1ccc2c3c(c(=O)oc2c1)CCCCC3 [Example 3]
[4]
  particle size distribution D10(%): 0.6 μm
  particle size distribution D50(%): 3.1 μm
  particle size distribution D90(%): 13.7 μm

## NS(=O)(=O)Oc1ccc2c3c(c(=O)oc2c1)CCCCC3 [Variety I of compound 1, 6-oxo-6,7,8,9,10,11-hexahydrocyclohepta[c]chromen-3-yl sulphamate]
[1]; T0
  HPLC Purity: 99.6%
[1]; T1 day at 100° C.
  HPLC Purity: 99.6%
[1]; T2 days at 100° C.
  HPLC Purity: 99.7%
[1]; T3 days at 100° C.
  HPLC Purity: 99.7%
[1]; T7 days at 100° C.
  HPLC Purity: 99.7%

## NS(=O)(=O)Oc1ccc2c3c(c(=O)oc2c1)CCCCC3 [form III, 6-oxo-6,7,8,9,10,11-hexahydrocyclohepta[c]chromen-3-yl sulphamate]
[5]
  behaviour of the form on returning to ambient temperature: remains unchanged
[2]; T0 (start of stability study at 150° C.), listed as Compound 1 of form III
  HPLC Purity: 99.4%
[2]; T2 hours at 150° C., listed as Compound 1 of form III
  HPLC Purity: 41.2%
